Data set [1] has as its system prostates cancers. As to conditions: mouse, in vivo; cited from earlier work.
The conditions of data set [2]: cited from earlier work.
In data set [3] the test system is cancer cell lines (WM115, KS1617). Kind of data set: Fluorescence imaging of binding of IC3-OSu-labeled carrier proteins to cancer cells. Format: cell-based. To be noted: 100 μl of 0.1 mg/ml labeled protein, about 10 min, room temperature, washed 3 times with PBS. The procedure: WM115 (high-level expression of αvβ3 integrin) and MCF7 (low level expression of αvβ3 integrin, about 10% of WM115) cell lines were grown in α MEM medium enriched with 10% fetal bovine serum (FBS) and 60 μg/ml of penicillin and 100 μg/ml of streptomycin. KS1617 cell line (high-level expression of CD13) was grown in RPMI1640 medium also enriched with 10% FBS and 60 μg/ml of penicillin and 100 μg/ml of streptomycin. The cell cultures were passed to fresh medium every 2–3 days. For fluorescent imaging, the cells were grown in 4-well culture slides to about 70% confluence before use.
To facilitate detection, the recombinant CTP-containing carrier proteins were labeled with Dojindo IC3-Osu, which reacts with lysine residues of the protein, according to the recommended protocols by the manufacturer (Dojindo, Gaithersburg, Md.) (FIG. 5). About 0.5 mg/ml protein was reacted with 3-fold excess of the fluorescent dye in dark at room temperature for 1 hr, and the extra dye was removed using Bio-Rad Econo-Pac desalting column. The labeling efficiency was measured using UV-vis spectroscopy. On average, about 25–35% of protein molecules were labeled.
The binding specificity between CTP-containing carrier proteins and various cancer cell lines was evaluated with both the native carrier proteins and normal cell lines as negative controls. […]

Where a name gives a salt, the structure may show the parent alone. Numbered stars: 1 amine (or outer) side, 2 acyl side, 3 side chain; on linkers, the order of the positions; unused ones are H or OH. Bridge positions count the residues as written; N and C are the ends. Square brackets hold non-standard residues; d marks the D form. Peptide text beside a SMILES is read from it. I, II: the chains in the order shown. Actinocin(9to1) = Cc1c2oc3c(C)ccc(C(=O)[*:1])c3nc-2c(C(=O)[*:2])c(N)c1=O; NMeV = CN[C@H](C(=O)O)C(C)C; Sar = CNCC(=O)O

Consider “SMSIARL [cancer-targeting peptide for prostate cancer]”, for which the “targeting to prostates cancers relative to other organs” value in data set [1] is recorded as 10–15 times.
In the case of `COc1cccc2c1C(=O)c1c(O)c3c(c(O)c1C2=O)C[C@@](O)(C(C)=O)C[C@@H]3O[C@H]1C[C@H](N)[C@H](O)[C@H](C)O1` [Daunorubicin, 5,12-Naphthacenedione, (8S-cis)-8-acetyl-10-((3-amino-2,3,6-trideoxy-a-L-lyxo-hexanopyranosyl)oxy)-7,8,9,10-tetrahydro-6,8,11-trihydroxy-10-methoxy-, hydrochloride], the “secreted into the bile” value in data set [2] (in vivo) was “about 40%”.
For `Cc1c2oc3c(C)ccc(C(=O)N[C@@H]4C(=O)N[C@H](C(C)C)C(=O)N5CCC[C@H]5C(=O)N(C)CC(=O)N(C)[C@@H](C(C)C)C(=O)O[C@@H]4C)c3nc-2c(C(=O)N[C@@H]2C(=O)N[C@H](C(C)C)C(=O)N3CCC[C@H]3C(=O)N(C)CC(=O)N(C)[C@@H](C(C)C)C(=O)O[C@@H]2C)c(N)c1=O` [Actinomycin D] (I: T[dV]P[Sar][NMeV] / II: T[dV]P[Sar][NMeV]; ester I:1-I:C, II:1-II:C; linker I:N-II:N via Actinocin(9to1)), the “part of the dose excreted intact into the bile” value in data set [2] (in vivo) is recorded as “Half of the dose”.
Consider `CC[C@]1(O)C[C@@H]2CN(CCc3c([nH]c4ccccc34)[C@@](C(=O)OC)(c3cc4c(cc3OC)N(C)[C@H]3[C@@](O)(C(=O)OC)[C@H](OC(C)=O)[C@]5(CC)C=CCN6CC[C@]43[C@@H]65)C2)C1` [Vinblastine], for which, in data set [2] (after intravenous injection), the “plasma half-life after distribution (first value)” value is given as “approximately 1 hours” and the “plasma half-life after distribution (second value)” value is approximately 20 h.

B1: native CagA: His-tagged native C-1027 apo-protein encoded by the cagA gene of Streptomyces globisporus; negative control (protein)
chain: APAFSVSPASGLSDGQSVSVSVSGAAAGETYYIAQCAPVGGQDACNPATATSFTTDASGAASFSFVVRKSYTGSTPEGTPVGSVDCATAACNLGAGNSGLDLGHVALTFG
modifications: left off: small tags and cut ends
notes: His-tagged native C-1027 apo-protein encoded by the cagA gene of Streptomyces globisporus; negative control
For B1, the “fluorescence detected on cells after incubation with labeled protein” value in data set [3] is “no significant fluorescence”.

B2: native NcsA: His-tagged native neocarzinostatin apo-protein encoded by the ncsA gene of Streptomyces carzinostaticus; negative control (protein)
chain: AAPTATVTPSSGLSDGTVVKVAGAGLQAGTAYDVGQCAWVDTGVLACNPADFSSVTADANGSASTSLTVRRSFEGFLFDGTRWGTVDCTTAACQVGLSDAAGNGPEGVAISFN
modifications: left off: small tags and cut ends
notes: His-tagged native neocarzinostatin apo-protein encoded by the ncsA gene of Streptomyces carzinostaticus; negative control
Take B2: in data set [3], the “fluorescence detected on cells after incubation with labeled protein” value is reported as “no significant fluorescence”.
